# From PubChem BioAssay AID2060494 (Molecular Pharmacology Branch, DTP, NCI, 2025)
# Tested on: 435261-313-R-J1-PDC complex spheroid viability
# Assay: Anticancer human tumor 435261-313-R-J1-PDC patient-derived colon adenocarcinoma cell line growth inhibition [GQUAD]
# Conditions: for IC50: curve of first compound; for viability, T/C: stronger effect = lower value
# Summary of the method: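 Multi-cell-type spheroids of tumor cells with HUVEC and mesenchymal stem cells, treated with drug combinations. Concentrations descend in half-log steps from near clinical Cmax, or from 10 microM where Cmax is unknown; viability read-out.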
# [1] = second compound 0.0316 µM, first compound 0.0316 µM
# [2] = second compound 0.0316 µM, first compound 0.1 µM
# [3] = second compound 0.0316 µM, first compound 0.316 µM
# [4] = second compound 0.0316 µM, first compound 1 µM
# [5] = second compound 0.0316 µM, first compound 3.16 µM
# [6] = second compound 0.0316 µM, first compound 10 µM
# [7] = second compound 0.1 µM, first compound 0.0316 µM
# [8] = second compound 0.1 µM, first compound 0.1 µM
# [9] = second compound 0.1 µM, first compound 0.316 µM
# [10] = second compound 0.1 µM, first compound 1 µM
# [11] = second compound 0.1 µM, first compound 3.16 µM
# [12] = second compound 0.1 µM, first compound 10 µM
# [13] = second compound 0.316 µM, first compound 0.0316 µM
# [14] = second compound 0.316 µM, first compound 0.1 µM
# [15] = second compound 0.316 µM, first compound 0.316 µM
# [16] = second compound 0.316 µM, first compound 1 µM
# [17] = second compound 0.316 µM, first compound 3.16 µM
# [18] = second compound 0.316 µM, first compound 10 µM
# [19] = second compound 1 µM, first compound 0.0316 µM
# [20] = second compound 1 µM, first compound 0.1 µM
# [21] = second compound 1 µM, first compound 0.316 µM
# [22] = second compound 1 µM, first compound 1 µM
# [23] = second compound 1 µM, first compound 3.16 µM
# [24] = second compound 1 µM, first compound 10 µM
# [25] = second compound 3.16 µM, first compound 0.0316 µM
# [26] = second compound 3.16 µM, first compound 0.1 µM
# [27] = second compound 3.16 µM, first compound 0.316 µM
# [28] = second compound 3.16 µM, first compound 1 µM
# [29] = second compound 3.16 µM, first compound 3.16 µM
# [30] = second compound 3.16 µM, first compound 10 µM
# [31] = second compound 10 µM, first compound 0.0316 µM
# [32] = second compound 10 µM, first compound 0.1 µM
# [33] = second compound 10 µM, first compound 0.316 µM
# [34] = second compound 10 µM, first compound 1 µM
# [35] = second compound 10 µM, first compound 3.16 µM
# [36] = second compound 10 µM, first compound 10 µM
# 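Further: spheroids exposed to the agents for seven days before readout.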
# 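Wherever viability, T/C is given: percent of vehicle control viability with DMSO wells as 100%.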
smiles,measurement,setting,value
COc1cc(C2c3cc4c(cc3C(OC3OC5COC(C)OC5C(O)C3O)C3COC(=O)C23)OCO4)cc(OC)c1O (stereo unspecified) + CN(C)c1ccc(Nc2c3ccc(NC(=O)CCN4CCCC4)cc3nc3cc(NC(=O)CCN4CCCC4)ccc23)cc1,IC50,second compound 0.0316 µM,> 10 µM
same,IC50,second compound 0.1 µM,> 10 µM
same,IC50,second compound 0.316 µM,> 10 µM
same,IC50,second compound 1 µM,> 10 µM
same,IC50,second compound 3.16 µM,> 10 µM
same,IC50,second compound 10 µM,0.0704 µM
same,"viability, T/C",[1],93.5%
same,"viability, T/C",[2],117%
same,"viability, T/C",[3],77.8%
same,"viability, T/C",[4],74.4%
same,"viability, T/C",[5],75.9%
same,"viability, T/C",[6],61.2%
same,"viability, T/C",[7],81.8%
same,"viability, T/C",[8],87.3%
same,"viability, T/C",[9],74.8%
same,"viability, T/C",[10],80.7%
same,"viability, T/C",[11],82.1%
same,"viability, T/C",[12],74.1%
same,"viability, T/C",[13],100%
same,"viability, T/C",[14],95.2%
same,"viability, T/C",[15],65.1%
same,"viability, T/C",[16],71%
same,"viability, T/C",[17],91.6%
same,"viability, T/C",[18],74.4%
same,"viability, T/C",[19],78.9%
same,"viability, T/C",[20],91.4%
same,"viability, T/C",[21],74.3%
same,"viability, T/C",[22],76.4%
same,"viability, T/C",[23],71.1%
same,"viability, T/C",[24],57.1%
same,"viability, T/C",[25],62.6%
same,"viability, T/C",[26],69.2%
same,"viability, T/C",[27],65.5%
same,"viability, T/C",[28],55.2%
same,"viability, T/C",[29],62.4%
same,"viability, T/C",[30],45.7%
same,"viability, T/C",[31],63%
same,"viability, T/C",[32],42.4%
same,"viability, T/C",[33],37.9%
same,"viability, T/C",[34],29%
same,"viability, T/C",[35],27.1%
same,"viability, T/C",[36],26.4%
Cc1cccc(N(C)C(=O)C2C(O)CCN2c2nc(C)cc(C(F)(F)F)c2C#N)c1 (stereo unspecified) + CN(C)c1ccc(Nc2c3ccc(NC(=O)CCN4CCCC4)cc3nc3cc(NC(=O)CCN4CCCC4)ccc23)cc1,IC50,second compound 0.0316 µM,> 10 µM
same,IC50,second compound 0.1 µM,> 10 µM
same,IC50,second compound 0.316 µM,> 10 µM
same,IC50,second compound 1 µM,> 10 µM
same,IC50,second compound 3.16 µM,> 10 µM
same,IC50,second compound 10 µM,< 0.0316 µM
same,"viability, T/C",[1],97.7%
same,"viability, T/C",[2],92.1%
same,"viability, T/C",[3],99.7%
same,"viability, T/C",[4],90.6%
same,"viability, T/C",[5],96.2%
same,"viability, T/C",[6],123%
same,"viability, T/C",[7],84.8%
same,"viability, T/C",[8],92.9%
same,"viability, T/C",[9],81.6%
same,"viability, T/C",[10],74.5%
same,"viability, T/C",[11],99%
same,"viability, T/C",[12],84.8%
same,"viability, T/C",[13],86.9%
same,"viability, T/C",[14],94%
same,"viability, T/C",[15],76.8%
same,"viability, T/C",[16],90.3%
same,"viability, T/C",[17],81.7%
same,"viability, T/C",[18],73.1%
same,"viability, T/C",[19],79.3%
same,"viability, T/C",[20],95.5%
same,"viability, T/C",[21],111%
same,"viability, T/C",[22],93%
same,"viability, T/C",[23],70.7%
same,"viability, T/C",[24],86%
same,"viability, T/C",[25],64.3%
same,"viability, T/C",[26],65.8%
same,"viability, T/C",[27],43.5%
same,"viability, T/C",[28],66.4%
same,"viability, T/C",[29],59.4%
same,"viability, T/C",[30],44.8%
same,"viability, T/C",[31],34.9%
same,"viability, T/C",[32],56.7%
same,"viability, T/C",[33],47.8%
same,"viability, T/C",[34],34%
same,"viability, T/C",[35],37.4%
same,"viability, T/C",[36],20.9%
Cn1ncnc1[C@H]1c2n[nH]c(=O)c3cc(F)cc(c23)N[C@@H]1c1ccc(F)cc1 + CN(C)c1ccc(Nc2c3ccc(NC(=O)CCN4CCCC4)cc3nc3cc(NC(=O)CCN4CCCC4)ccc23)cc1,IC50,second compound 0.0316 µM,> 0.316 µM
same,IC50,second compound 0.1 µM,> 0.316 µM
same,IC50,second compound 0.316 µM,> 0.316 µM
same,IC50,second compound 1 µM,> 0.316 µM
same,IC50,second compound 3.16 µM,> 0.316 µM
same,IC50,second compound 10 µM,< 0.000999 µM
same,"viability, T/C","second compound 0.0316 µM, first compound 0.000999 µM",86.2%
same,"viability, T/C","second compound 0.0316 µM, first compound 0.00316 µM",92.3%
same,"viability, T/C","second compound 0.0316 µM, first compound 0.00999 µM",85.7%
same,"viability, T/C",[1],78.1%
same,"viability, T/C","second compound 0.0316 µM, first compound 0.0999 µM",74.2%
same,"viability, T/C",[3],74.6%
same,"viability, T/C","second compound 0.1 µM, first compound 0.000999 µM",97.5%
same,"viability, T/C","second compound 0.1 µM, first compound 0.00316 µM",77.7%
same,"viability, T/C","second compound 0.1 µM, first compound 0.00999 µM",90.6%
same,"viability, T/C",[7],92.1%
same,"viability, T/C","second compound 0.1 µM, first compound 0.0999 µM",88.2%
same,"viability, T/C",[9],76.7%
same,"viability, T/C","second compound 0.316 µM, first compound 0.000999 µM",97.5%
same,"viability, T/C","second compound 0.316 µM, first compound 0.00316 µM",73.2%
same,"viability, T/C","second compound 0.316 µM, first compound 0.00999 µM",84.1%
same,"viability, T/C",[13],79.1%
same,"viability, T/C","second compound 0.316 µM, first compound 0.0999 µM",70.7%
same,"viability, T/C",[15],62.2%
same,"viability, T/C","second compound 1 µM, first compound 0.000999 µM",96.7%
same,"viability, T/C","second compound 1 µM, first compound 0.00316 µM",92.1%
same,"viability, T/C","second compound 1 µM, first compound 0.00999 µM",84.5%
same,"viability, T/C",[19],70.7%
same,"viability, T/C","second compound 1 µM, first compound 0.0999 µM",83.2%
same,"viability, T/C",[21],68.9%
same,"viability, T/C","second compound 3.16 µM, first compound 0.000999 µM",70.4%
same,"viability, T/C","second compound 3.16 µM, first compound 0.00316 µM",77.2%
same,"viability, T/C","second compound 3.16 µM, first compound 0.00999 µM",56.1%
same,"viability, T/C",[25],62.4%
same,"viability, T/C","second compound 3.16 µM, first compound 0.0999 µM",78.9%
same,"viability, T/C",[27],48.2%
same,"viability, T/C","second compound 10 µM, first compound 0.000999 µM",31.3%
same,"viability, T/C","second compound 10 µM, first compound 0.00316 µM",35.4%
same,"viability, T/C","second compound 10 µM, first compound 0.00999 µM",44.2%
same,"viability, T/C",[31],26.7%
same,"viability, T/C","second compound 10 µM, first compound 0.0999 µM",27.4%
same,"viability, T/C",[33],35.3%
